Measured values as given in article PMC8657793, “Synthesis, In Vitro and In Silico Anticancer Activity of New 4-Methylbenzamide Derivatives Containing 2,6-Substituted Purines as Potential Protein Kinases Inhibitors” (International Journal of Molecular Sciences, 2021).

Legend:
[1] = target: T1, HER4 (Homo sapiens, UniProt Q15303); experiment: Kinase Selectivity Profiling System TK-1 / ADP-Glo, HER4; format: biochemical
T1 construct: purchased Promega
Method: (§1) At the end, 10 μL of kinase detection reagent was added into the well and incubated for 30 min to produce a luminescence signal.

[2] = target: T2, EGFR (Homo sapiens, UniProt P00533); experiment: Kinase Selectivity Profiling System TK-1 / ADP-Glo, EGFR; format: biochemical
T2 construct: purchased Promega
T2 sequence (P00533 25-1210): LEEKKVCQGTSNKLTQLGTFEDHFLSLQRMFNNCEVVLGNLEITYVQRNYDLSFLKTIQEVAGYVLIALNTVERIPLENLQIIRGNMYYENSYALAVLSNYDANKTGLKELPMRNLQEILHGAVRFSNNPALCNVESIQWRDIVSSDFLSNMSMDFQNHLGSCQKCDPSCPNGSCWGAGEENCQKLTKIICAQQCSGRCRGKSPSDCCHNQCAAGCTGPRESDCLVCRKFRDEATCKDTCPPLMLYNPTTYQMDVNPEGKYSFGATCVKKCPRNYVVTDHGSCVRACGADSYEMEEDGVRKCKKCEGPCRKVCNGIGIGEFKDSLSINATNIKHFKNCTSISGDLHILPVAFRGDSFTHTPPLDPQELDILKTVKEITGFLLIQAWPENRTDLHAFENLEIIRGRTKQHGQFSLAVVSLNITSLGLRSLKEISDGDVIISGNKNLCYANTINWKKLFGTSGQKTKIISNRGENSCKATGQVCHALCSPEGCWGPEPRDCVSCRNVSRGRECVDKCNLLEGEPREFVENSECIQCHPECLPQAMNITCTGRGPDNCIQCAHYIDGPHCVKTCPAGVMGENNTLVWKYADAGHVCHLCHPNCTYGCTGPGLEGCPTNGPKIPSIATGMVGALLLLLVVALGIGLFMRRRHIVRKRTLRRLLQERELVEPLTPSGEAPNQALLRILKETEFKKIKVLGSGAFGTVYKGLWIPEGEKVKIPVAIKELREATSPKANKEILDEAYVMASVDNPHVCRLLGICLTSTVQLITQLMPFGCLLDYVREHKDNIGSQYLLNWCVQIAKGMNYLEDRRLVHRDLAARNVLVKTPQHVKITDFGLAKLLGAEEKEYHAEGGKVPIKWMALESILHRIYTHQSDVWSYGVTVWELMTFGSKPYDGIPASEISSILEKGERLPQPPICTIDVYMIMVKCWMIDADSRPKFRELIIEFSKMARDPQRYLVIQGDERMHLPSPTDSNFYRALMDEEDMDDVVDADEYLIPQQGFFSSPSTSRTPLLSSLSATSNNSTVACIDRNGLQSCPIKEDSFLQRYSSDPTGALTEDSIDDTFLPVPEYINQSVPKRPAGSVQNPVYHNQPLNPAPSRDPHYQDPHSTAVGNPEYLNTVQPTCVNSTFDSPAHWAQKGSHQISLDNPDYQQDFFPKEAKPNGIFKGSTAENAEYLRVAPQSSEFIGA
Method: as §1

[3] = target: T3, IGF1R (Homo sapiens, UniProt P08069); experiment: Kinase Selectivity Profiling System TK-1 / ADP-Glo, IGF1R; format: biochemical
T3 construct: purchased Promega
T3 sequence (P08069 31-1367): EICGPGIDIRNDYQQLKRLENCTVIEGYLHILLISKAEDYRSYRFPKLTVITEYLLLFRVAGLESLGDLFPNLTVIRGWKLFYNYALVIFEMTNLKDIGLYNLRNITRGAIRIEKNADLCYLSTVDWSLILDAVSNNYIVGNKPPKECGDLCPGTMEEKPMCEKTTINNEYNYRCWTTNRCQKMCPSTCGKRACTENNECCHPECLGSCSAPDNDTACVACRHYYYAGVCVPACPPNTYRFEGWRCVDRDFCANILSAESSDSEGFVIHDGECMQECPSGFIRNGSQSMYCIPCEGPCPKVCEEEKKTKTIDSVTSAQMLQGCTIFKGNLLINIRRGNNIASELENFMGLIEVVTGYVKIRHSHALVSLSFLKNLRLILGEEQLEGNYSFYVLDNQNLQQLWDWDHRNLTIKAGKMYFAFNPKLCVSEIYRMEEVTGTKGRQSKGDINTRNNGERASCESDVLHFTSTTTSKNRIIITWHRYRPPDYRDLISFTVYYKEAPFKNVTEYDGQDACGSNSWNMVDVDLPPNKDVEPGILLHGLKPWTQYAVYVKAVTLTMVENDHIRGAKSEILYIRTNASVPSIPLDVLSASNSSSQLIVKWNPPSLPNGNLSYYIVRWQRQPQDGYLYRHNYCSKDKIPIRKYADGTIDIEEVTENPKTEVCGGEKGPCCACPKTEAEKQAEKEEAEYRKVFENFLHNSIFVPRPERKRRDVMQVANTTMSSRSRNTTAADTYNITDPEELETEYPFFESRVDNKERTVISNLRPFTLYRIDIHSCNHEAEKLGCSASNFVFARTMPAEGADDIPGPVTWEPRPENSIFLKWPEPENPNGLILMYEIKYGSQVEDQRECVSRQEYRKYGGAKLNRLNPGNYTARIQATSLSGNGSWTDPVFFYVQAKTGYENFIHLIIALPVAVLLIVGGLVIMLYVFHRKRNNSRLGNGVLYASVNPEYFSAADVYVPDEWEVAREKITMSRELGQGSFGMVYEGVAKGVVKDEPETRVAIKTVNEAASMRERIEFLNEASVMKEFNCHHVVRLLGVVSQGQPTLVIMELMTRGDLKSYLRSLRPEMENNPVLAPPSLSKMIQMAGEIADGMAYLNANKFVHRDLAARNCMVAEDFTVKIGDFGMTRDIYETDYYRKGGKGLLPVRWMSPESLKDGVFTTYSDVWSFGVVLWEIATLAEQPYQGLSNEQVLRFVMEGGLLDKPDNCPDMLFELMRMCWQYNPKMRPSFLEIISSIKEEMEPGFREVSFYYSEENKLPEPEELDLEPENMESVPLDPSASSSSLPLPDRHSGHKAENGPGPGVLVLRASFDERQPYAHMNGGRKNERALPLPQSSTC
Method: as §1

[4] = system: HL-60 (promyelocytic leukemia); experiment: MTT anti-proliferative assay, HL-60; format: cell-based; settings: Homo sapiens, 48 h
Method: (§2) For the in vitro assays, a stock solution (1% DMSO in the appropriate buffer with the tested compound diluted under sonication) was prepared from which several dilutions were made with the appropriate buffer.
(§3) Human cell lines were obtained from the Institute of Cytology, Russian Academy of Sciences. […] Plates were incubated under standard conditions for 48 h.

[5] = target: T4, KDR (VEGFR-2) (Homo sapiens, UniProt P35968); experiment: Kinase Selectivity Profiling System TK-1 / ADP-Glo, KDR; format: biochemical
T4 construct: purchased Promega
Method: as §1

[6] = target: T5, Bcr–Abl1 kinase (Homo sapiens, UniProt P00519); experiment: Abl1 Kinase Enzyme System / ADP-Glo kinase assay; format: biochemical; settings: ATP 50 μM; for inhibition at 0.5 µM: 0.5 µM compound; for inhibition at 10 µM: 10 µM compound
T5 construct: purchased Promega
T5 sequence (P00519 whole entry): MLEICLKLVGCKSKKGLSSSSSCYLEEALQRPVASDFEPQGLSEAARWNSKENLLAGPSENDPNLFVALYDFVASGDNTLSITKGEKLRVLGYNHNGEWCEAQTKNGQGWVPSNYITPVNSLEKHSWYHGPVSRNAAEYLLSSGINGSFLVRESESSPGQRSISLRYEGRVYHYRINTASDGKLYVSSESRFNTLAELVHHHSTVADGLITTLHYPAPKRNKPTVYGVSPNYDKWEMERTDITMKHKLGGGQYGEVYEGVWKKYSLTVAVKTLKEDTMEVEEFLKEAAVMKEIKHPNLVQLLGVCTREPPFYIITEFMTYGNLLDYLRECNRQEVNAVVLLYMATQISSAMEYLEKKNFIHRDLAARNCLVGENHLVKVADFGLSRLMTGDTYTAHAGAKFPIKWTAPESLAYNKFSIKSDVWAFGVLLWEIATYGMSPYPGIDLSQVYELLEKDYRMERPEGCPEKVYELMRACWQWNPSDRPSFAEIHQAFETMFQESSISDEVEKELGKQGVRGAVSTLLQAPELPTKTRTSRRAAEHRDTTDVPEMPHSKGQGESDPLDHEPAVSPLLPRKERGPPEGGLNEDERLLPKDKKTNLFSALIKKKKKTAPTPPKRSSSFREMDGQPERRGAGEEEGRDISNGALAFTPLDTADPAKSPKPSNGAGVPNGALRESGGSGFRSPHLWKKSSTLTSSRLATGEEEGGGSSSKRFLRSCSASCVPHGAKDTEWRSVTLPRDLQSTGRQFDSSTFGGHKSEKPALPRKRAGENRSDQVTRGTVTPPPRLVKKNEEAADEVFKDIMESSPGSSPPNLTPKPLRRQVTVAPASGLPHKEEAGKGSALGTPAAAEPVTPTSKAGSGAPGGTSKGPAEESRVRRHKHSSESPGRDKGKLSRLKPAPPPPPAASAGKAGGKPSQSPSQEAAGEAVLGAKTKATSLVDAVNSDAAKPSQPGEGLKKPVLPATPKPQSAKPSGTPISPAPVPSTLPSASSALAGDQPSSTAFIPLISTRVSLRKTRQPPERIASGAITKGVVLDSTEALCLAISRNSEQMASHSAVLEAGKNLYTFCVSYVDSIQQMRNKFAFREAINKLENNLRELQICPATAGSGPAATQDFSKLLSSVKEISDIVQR
Method: as §1

[7] = target: T6, HER2 (Homo sapiens, UniProt P04626); experiment: Kinase Selectivity Profiling System TK-1 / ADP-Glo, HER2; format: biochemical
T6 construct: purchased Promega
Method: as §1

[8] = target: T7, PDGFRα (Homo sapiens, UniProt P16234); experiment: Kinase Selectivity Profiling System TK-1 / ADP-Glo, PDGFRα; format: biochemical
T7 construct: purchased Promega
Text: Considering the presence of a purine ring in the compounds under study, type 1 binding to protein kinases could be expected. We investigated the kinase selectivity of targeted compounds 7–16 against eight receptor tyrosine kinases including EGFR, HER2 and HER4 (epidermal growth factor receptors), IGF1R (insulin-like growth factor 1 receptor), InsR (insulin receptor), KDR (vascular endothelial growth factor receptor 2—VEGFR-2), and PDGFRα and PDGFRβ (platelet-derived growth factor receptors). The assay was performed using the Kinase Selectivity Profiling System TK-1 (Promega, Madison, WI, USA) and ADP-Glo™ Kinase assay kit (Promega, Madison, WI, USA). Kinase activity was measured by quantifying the […] following a kinase reaction. Enzymatic activity inhibition percentage caused by studied compounds was evaluated at the single concentration of 1 μM.
The Abl1 inhibitory activity assay was performed using Abl1 Kinase Enzyme System (Promega, Madison, WI, USA) and ADP-Glo™ Kinase assay kit (Promega, Madison, WI, USA) according to the Technical Manual. The general procedure was as follows: kinase (2.5 ng/reaction) was incubated with substrate (1 μg), compound (0.5 and 10µM) and ATP (50 μM) in a commercial buffer solution with a reaction volume of 5 μL. In every experiment, no-enzyme and no-compound control reactions were included to represent background luminescence (0% activity) and uninhibited kinase activity (100% activity), respectively. The assay 384-well plate was incubated at room temperature for 1 h. Afterwards, 5μL of ADP-Glo reagent was added into each well to stop the reaction and consume the […] within 40 min. At the end, 10 μL of kinase detection reagent was added into the well and incubated for 30 min to produce a luminescence signal. Kinase activity assays were performed in triplicate at each inhibitor concentration. The luminescence was measured with the help of a Tecan Infinite M200 Plate Reader. The luminescence data were analyzed using the computer software, Magellan™. Percent kinase activity (KA) was calculated by subtracting the average no-enzyme control luminescence values from all kinase-containing reactions with or without compound, then converting these net luminescence values to percent activity based on the no-compound control reactions representing 100% kinase activity. Inhibition (I, %) was calculated as 100%-KA.
The single-dose screening of kinase selectivity was performed using Kinase Selectivity Profiling System TK-1 (Promega, Madison, WI, USA) and ADP-Glo™ Kinase assay kit (Promega, Madison, WI, USA) according to Technical Manual. Kinase Selectivity Profiling System TK-1 includes a set of kinases from the tyrosine kinase family (EGFR, HER2, HER4, IGF1R, InsR, KDR, PDGFα, PDGFβ) in 8-tube strip format. The general procedure was as follow: kinase working stock (2 µL/reaction) was incubated with ATP/substrate working stock (1 µL) and compound (1 µM) in a commercial buffer solution with a reaction volume of 5 μL. The reaction conditions and inhibition (%) calculation were the same as in Section 3.3.1. Kinase activity assays were performed in duplicate at each inhibitor.

[9] = target: T8, InsR (Homo sapiens, UniProt P06213); experiment: Kinase Selectivity Profiling System TK-1 / ADP-Glo, InsR; format: biochemical
T8 construct: purchased Promega
Method: as §1

[10] = system: RPMI 1788 (B lymphocyte, normal human lymphoblastoid cells); experiment: MTT assay on normal cells RPMI 1788; format: cell-based
Method: (§4) To determine the selectivity of the synthesized compounds 7–16 toward various cancer cells and normal human cells, the anti-proliferative activity against K562 (chronic myelogenous leukemia), HL-60 (promyelocytic leukemia), MCF-7 (breast adenocarcinoma), HeLa (cervix carcinoma), HepG2 (human liver cancer), A549 (lung carcinoma), OKP-GS (renal cell carcinoma), and normal cells RPMI 1788 (B lymphocyte, the human cell line) was investigated.
as §2, with “Each in vitro experiment was performed at least in triplicate and the standard deviation of absorbance was less than 10% of the mean. For” for “For”
Human cell lines were obtained from the Institute of Cytology, Russian Academy of Sciences. The cell lines studied were maintained in RPMI 1640 medium (AppliChem, Darmstadt, Germany) supplemented with 20% (HL-60, RPMI 1788) fetal calf serum (HyClone, Cramlington, UK), in DMEM (A 549) and Eagle’s MEM (AppliChem) (MCF7, HeLa) with 10% fetal calf serum (HyClone). Cells were cultivated at 37 °C in a humidified atmosphere of 5% CO2. Cellular sensitivities to synthesized compounds and standards were measured with the MTT assay. Cells were plated in triplicate in 96-well plates (10^5 cells/well for suspended cell cultures and 5 × 10^3 cells/well for monolayer cultures); on the same day (suspended cell cultures) or on the following day (monolayer cultures), compounds were added at the appropriate dilutions. […] The reference drugs were imatinib, sorafenib and nilotinib. Plates were incubated under standard conditions for 48 h. Thereafter, 10 μL MTT (Sigma) in phosphate-buffered saline (5 mg/mL) was added. The plates were incubated for an additional 4 h and 150 μL dimethylsulphoxide (DMSO) was added to dissolve the formazan crystals. The optical density was read on a HALO MPR-95 Microplate Reader (Dynamica Scientific Ltd., Melbourne, Victoria, Australia) at 570 nm. The antiproliferative effects were taken as degrees of inhibition of tumor cells (%). The average of three parallel measurements was calculated for each concentration of test compound. The degree of cell growth suppression was plotted as a function of the logarithm of the concentration. The half maximal inhibitory concentration (IC50) was determined graphically for active compounds.

[11] = target: T9, PDGFRβ (Homo sapiens, UniProt P09619); experiment: Kinase Selectivity Profiling System TK-1 / ADP-Glo, PDGFRβ; format: biochemical
T9 construct: purchased Promega
T9 sequence (P09619 33-1106): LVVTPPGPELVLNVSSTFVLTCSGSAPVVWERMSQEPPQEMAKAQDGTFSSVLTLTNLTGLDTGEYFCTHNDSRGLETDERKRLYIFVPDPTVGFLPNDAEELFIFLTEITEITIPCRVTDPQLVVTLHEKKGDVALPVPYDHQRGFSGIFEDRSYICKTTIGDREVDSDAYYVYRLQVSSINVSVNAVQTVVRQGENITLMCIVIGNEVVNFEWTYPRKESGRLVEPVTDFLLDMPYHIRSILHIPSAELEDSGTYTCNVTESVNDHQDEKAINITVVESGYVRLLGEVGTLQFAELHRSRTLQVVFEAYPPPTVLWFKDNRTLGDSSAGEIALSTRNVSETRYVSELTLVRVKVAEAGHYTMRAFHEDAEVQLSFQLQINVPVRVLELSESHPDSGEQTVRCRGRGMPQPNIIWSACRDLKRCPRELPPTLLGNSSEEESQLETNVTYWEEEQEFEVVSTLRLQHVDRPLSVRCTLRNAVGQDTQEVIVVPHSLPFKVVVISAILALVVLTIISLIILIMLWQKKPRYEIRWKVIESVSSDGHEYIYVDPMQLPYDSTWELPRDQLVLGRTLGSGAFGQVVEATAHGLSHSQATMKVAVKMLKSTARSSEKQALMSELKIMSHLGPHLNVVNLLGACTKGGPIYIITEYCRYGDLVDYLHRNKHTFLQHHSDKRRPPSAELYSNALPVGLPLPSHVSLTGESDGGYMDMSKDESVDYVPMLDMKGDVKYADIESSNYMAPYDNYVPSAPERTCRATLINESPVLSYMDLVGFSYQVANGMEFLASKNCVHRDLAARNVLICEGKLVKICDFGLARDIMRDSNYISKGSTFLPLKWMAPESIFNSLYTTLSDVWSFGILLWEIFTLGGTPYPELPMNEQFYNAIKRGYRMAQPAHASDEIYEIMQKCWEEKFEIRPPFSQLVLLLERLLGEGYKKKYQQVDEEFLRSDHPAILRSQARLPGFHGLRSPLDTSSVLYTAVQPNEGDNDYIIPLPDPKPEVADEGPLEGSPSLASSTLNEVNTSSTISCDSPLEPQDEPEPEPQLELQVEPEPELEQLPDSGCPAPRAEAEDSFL
Method: as §1

[12] = system: K562 (chronic myelogenous leukemia); experiment: MTT anti-proliferative assay, K562; format: cell-based; settings: Homo sapiens, 48 h
Method: as §2, §3

[13] = system: OKP-GS (renal cell carcinoma); experiment: MTT anti-proliferative assay, OKP-GS; format: cell-based; settings: Homo sapiens, 48 h
Method: as §4
as §2, with “Each in vitro experiment was performed at least in triplicate and the standard deviation of absorbance was less than 10% of the mean. For” for “For”
Human cell lines were obtained from the Institute of Cytology, Russian Academy of Sciences. The cell lines studied were maintained in RPMI 1640 medium (AppliChem, Darmstadt, Germany) supplemented with 20% (HL-60, RPMI 1788) fetal calf serum (HyClone, Cramlington, UK), in DMEM (A 549) and Eagle’s MEM (AppliChem) (MCF7, HeLa) with 10% fetal calf serum (HyClone). Cells were cultivated at 37 °C in a humidified atmosphere of 5% CO2. Cellular sensitivities to synthesized compounds and standards were measured with the MTT assay. Cells were plated in triplicate in 96-well plates (10^5 cells/well for suspended cell cultures and 5 × 10^3 cells/well for monolayer cultures); on the same day (suspended cell cultures) or on the following day (monolayer cultures), compounds were added at the appropriate dilutions. Anti-proliferative activity was studied at concentrations 0.1–50.0 µM. The reference drugs were imatinib, sorafenib and nilotinib. Plates were incubated under standard conditions for 48 h. Thereafter, 10 μL MTT (Sigma) in phosphate-buffered saline (5 mg/mL) was added. The plates were incubated for an additional 4 h and 150 μL dimethylsulphoxide (DMSO) was added to dissolve the formazan crystals. The optical density was read on a HALO MPR-95 Microplate Reader (Dynamica Scientific Ltd., Melbourne, Victoria, Australia) at 570 nm. The antiproliferative effects were taken as degrees of inhibition of tumor cells (%). The average of three parallel measurements was calculated for each concentration of test compound. The degree of cell growth suppression was plotted as a function of the logarithm of the concentration. The half maximal inhibitory concentration (IC50) was determined graphically for active compounds.

SMILES | inhibition at 1 µM [1] [%] | inhibition at 1 µM [2] [%] | inhibition at 1 µM [3] [%] | IC50 [4] [µM] | inhibition at 1 µM [5] [%] | melting point [°C] | inhibition at 0.5 µM [6] [%] | inhibition at 10 µM [6] [%] | % Inhibition at 1 µM, HER2 [7] [%] | inhibition at 1 µM [7] [%] | inhibition at 1 µM [8] [%] | inhibition at 1 µM [9] [%] | inhibition at 100 µM [10] [%] | inhibition at 1 µM [11] [%] | IC50 [12] [µM] | IC50 [13] [µM]
Nc1nc(F)nc2c1ncn2Cc1ccc(C(=O)Nc2cccc(C(F)(F)F)c2)cc1 [Compound 8, 4-((6-Amino-2-fluoro-9H-purin-9-yl)methyl)-N-(3-(trifluoromethyl)phenyl)benzamide] | 23 | 15 | 5 | > 50 | 14 | 309 to 311 | 23 | 34 | 26 | 22 to 26 | 13 | 0 | 33.5 | 32 | – | –
Nc1ncnc2c1ncn2Cc1ccc(C(=O)Nc2cccc(C(F)(F)F)c2)cc1 [Compound 9, 4-((6-Amino-9H-purin-9-yl)methyl)-N-(3-(trifluoromethyl)phenyl)benzamide] | 0 | 11 | 0 | – | 2 | – | 39 | 34 | – | 0 | 45 | 0 | 56.8 | 36 | – | –
Cc1cn(-c2cc(NC(=O)c3ccc(Cn4cnc5c(N)nc(F)nc54)cc3)cc(C(F)(F)F)c2)cn1 [Compound 11, 4-((6-Amino-2-fluoro-9H-purin-9-yl)methyl)-N-(3-(4-methyl-1H-imidazol-1-yl)-5-(trifluoromethyl)phenyl)benzamide] | 0 | 14 | 0 | 29.7 ± 1.19 | 12 | 230 to 232 | 37 | 37 | – | 0 | 4 | 0 | 93.4 | 0 | – | –
Cc1cn(-c2cc(NC(=O)c3ccc(Cn4cnc5c(N)ncnc54)cc3)cc(C(F)(F)F)c2)cn1 [Compound 12, 4-((6-Amino-9H-purin-9-yl)methyl)-N-(3-(4-methyl-1H-imidazol-1-yl)-5-(trifluoromethyl)phenyl) benzamide] | 0 | 17 | 0 | – | 0 | 268 to 270 | 38 | 14 | – | 0 | 22 | 0 | – | 36 | – | –
Cc1cn(-c2cc(NC(=O)c3ccc(Cn4cnc5c(N)nc(Cl)nc54)cc3)cc(C(F)(F)F)c2)cn1 [Compound 16, 4-((6-Amino-2-chloro-9H-purin-9-yl)methyl)-N-(3-(4-methyl-1H-imidazol-1-yl)-5-(trifluoromethyl)phenyl)benzamide] | 0 | 13 | 0 | – | 12 | – | 15 | 36 | – | 0 | 17 | 0 | 5.91 | 6 | – | –
Cc1ccc(NC(=O)c2ccc(CN3CCN(C)CC3)cc2)cc1Nc1nccc(-c2cccnc2)n1 [Imatinib, imatinib, reference compound] | – | – | – | – | – | – | – | – | – | – | – | – | 99 | – | – | –
CS(=O)(=O)CCNCc1ccc(-c2ccc3ncnc(Nc4ccc(OCc5cccc(F)c5)c(Cl)c4)c3c2)o1 [Lapatinib, lapatinib, reference compound] | 94 | – | 0 | – | – | – | – | – | – | 68 | 4 | 0 | – | 7 | – | –
Cc1cn(-c2cc(NC(=O)c3ccc(C)c(Nc4nccc(-c5cccnc5)n4)c3)cc(C(F)(F)F)c2)cn1 [Nilotinib, nilotinib, reference compound] | – | – | – | 55 | – | – | – | – | – | – | – | – | 71 | – | < 0.1 | 55
